In patent publication US5750362A, “Methods for identifying substances with a potential herbicidal or growth-regulating action by means of plant transporter proteins, the use of the transporter proteins, and substances with a herbicidal and growth-regulating action” (BASF Aktiengesellschaft, priority 1993, dated 1998):

How the values were obtained:
[1] = target: T1, amino-acid transporter AAP2 (Arabidopsis thaliana, UniProt Q38967); experiment: Uptake of radiolabeled L-proline by yeast mutant 22457d-AAP2 expressing the plant amino-acid transporter; type: cell-based; settings: L-[14C]-proline uptake, read-out: Activity relative to control [%]
T1 construct: expressed in transfected cells; host or cells: Saccharomyces cerevisiae mutant 22574d (also printed 22457d)
T1 sequence (Q38967 1-493): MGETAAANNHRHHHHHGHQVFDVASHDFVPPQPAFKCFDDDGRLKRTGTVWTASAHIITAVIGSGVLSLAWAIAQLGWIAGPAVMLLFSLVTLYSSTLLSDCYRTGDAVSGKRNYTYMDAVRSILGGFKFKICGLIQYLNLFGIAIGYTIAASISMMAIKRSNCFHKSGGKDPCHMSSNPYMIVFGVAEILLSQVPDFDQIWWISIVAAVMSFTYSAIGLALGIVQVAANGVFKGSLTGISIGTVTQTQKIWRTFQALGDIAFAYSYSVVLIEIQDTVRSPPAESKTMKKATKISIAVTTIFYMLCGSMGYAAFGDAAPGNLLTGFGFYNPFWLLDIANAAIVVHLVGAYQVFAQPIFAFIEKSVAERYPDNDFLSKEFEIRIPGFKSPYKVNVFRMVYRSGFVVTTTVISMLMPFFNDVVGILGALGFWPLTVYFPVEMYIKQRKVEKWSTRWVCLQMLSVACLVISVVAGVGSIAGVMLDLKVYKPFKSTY
Description: Transporter investigations are carried out on the yeast mutant 22574d (Jauniaux & Grenson, Eur. J. Biochem. 190: 39-44, 1990), which harbors a mutation in the gene for amino-acid permease, and on the yeast mutant JT 16 (Tanaka and Fink, Gene 38: 205-214, 1985) which is incapable of histidine uptake, for identification of inhibitors of plant amino-acid transporters. These mutants are transformed with cDNA sequences which code for plant amino-acid transporters and lead to expression of functional transporters in the yeast cells. The cDNA sequences are cDNA sequences which code for the amino-acid transporters AAP1 and AAP2 from Arabidopsis thaliana (Frommer et al., 1993, Proc. Natl. Acad. Sci. USA 90: 5944-5948; Kwart et al., 1993, Plant J. 4:993-1002). For the measurements, cells of these mutants are cultured in minimal medium (NAAG+5 mmol/l proline) at 28° C. and harvested in the logarithmic phase (OD600 =0.6). The cells are spun down in a centrifuge at 4000 rpm and 4 degrees Celsius for 10 minutes and washed 2× with AUB buffer (modified AAB buffer, Ljungdahl et al.). The cell concentration is adjusted to an OD600 of 25 in AUB buffer.
100 μl portions of the cell suspension are mixed with 100 μl of a 1 mmol/l L-proline solution (18.5 kBq of L-[14C]-proline) and various concentrations of the appropriate substance to be investigated. After 20, 60, 120 and 180 seconds, a 50 μl aliquot is removed, diluted in 4 ml -of ice-cold AUB buffer and filtered through glass fever [sic] filter. In order to remove nonspecifically bound L-[14C]-proline, the cells are washed 2× with 4 ml of ice-cold water each time. The radioactivity retained on the glass filter is then measured in a liquid scintillation counter. The radioactivity reflects the amount of radiolabeled proline taken up by the cells. Uptake of radiolabeled proline without addition of a potential inhibitor is determined as one control. Cells of each of the mutants 22574d and JY 16 which have not been transformed with cDNA sequences coding for plant amino-acid transporters are used as further control. Results of measurements of this type on the mutants 22457d-AAP2 which expresses the amino-acid transporter AAP2 from Arabisopsis [sic] thaliana are shown in the following table.
For the investigations, yeast cells of the strain 22457d were transformed with a cDNA sequence which codes for the amino-acid transporter AAP2, and the uptake of radiolabeled proline in the presence of various substances was determined. The various substances tested, their concentration, and the activity of the transporter, shown as percentage activity of the control with which no potential inhibitors were added, are indicated.

[2] = target: T2, sucrose transporter S21 (SoSUT1) (Spinacia oleracea, UniProt Q03411); experiment: [14C]-sucrose uptake by yeast strain SUSY7 expressing the spinach sucrose transporter; type: cell-based; settings: [14C]-sucrose uptake, pH 3.8, read-out: Activity relative to the control [%]
T2 construct: expressed in transfected cells; host or cells: Saccharomyces cerevisiae SUSY7
T2 sequence (Q03411 1-525): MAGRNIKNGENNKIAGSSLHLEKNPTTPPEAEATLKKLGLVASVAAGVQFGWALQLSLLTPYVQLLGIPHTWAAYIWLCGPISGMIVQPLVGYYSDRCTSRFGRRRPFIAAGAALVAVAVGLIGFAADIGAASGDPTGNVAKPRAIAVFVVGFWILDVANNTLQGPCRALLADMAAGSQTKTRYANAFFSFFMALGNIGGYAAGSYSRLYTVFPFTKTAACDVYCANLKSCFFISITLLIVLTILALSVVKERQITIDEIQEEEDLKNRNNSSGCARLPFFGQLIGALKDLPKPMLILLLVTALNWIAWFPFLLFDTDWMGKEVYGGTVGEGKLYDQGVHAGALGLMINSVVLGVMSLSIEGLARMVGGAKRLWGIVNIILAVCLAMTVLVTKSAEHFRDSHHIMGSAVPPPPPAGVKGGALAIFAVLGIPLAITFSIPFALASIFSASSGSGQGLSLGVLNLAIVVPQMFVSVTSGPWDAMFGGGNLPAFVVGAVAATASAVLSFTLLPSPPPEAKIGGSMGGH
Description: Yeast cells of the strain SUSY7 (Riesmeier et al., 1992, EMBO J. 11: 4705-4713) are used to identify substances which have an inhibitory effect on sucrose transporters from spinach. Cells of this strain are transformed with a cDNA sequence which codes for the sucrose transporter S21 (SoSUT1) from spinach and which ensures expression of a functional transporter in the cells. The yeast cells are cultured in minimal medium (SD+2% (w/v) sucrose, pH 3.8) at 28° C. and harvested in the logarithmic phase (OD600 =0.6). The cells are spun down at 4000 rpm for 10 minutes and washed twice with SD medium. A cell concentration of c=50 g/l in SD medium is adjusted according to the wet weight of the cells, and 200 μl aliquot fractions are taken. Before the actual reaction, the cells are incubated in 10 mM glucose for 5 min and adjusted to pH 3.8 with MES buffer. The reaction is started by adding 200 μl of a 0.2 mmol/l [14C]-sucrose solution (3 mCi/mmol) in SD medium (pH 3.8). After 20, 60, 120, 180 and 240 seconds, 70 μl portions of the suspension are removed and pipetted into 4 ml of ice-cold water in order to stop the reaction. The cells are filtered off on glass fiber filters and washed twice with ice-cold water. The radioactivity on the filters is subsequently determined in a liquid scintillation counter. The substances to be tested are added 30 seconds before addition of the sucrose. The uptake of radiolabeled sucrose without addition of a potential inhibitor is determined as one control. Cells of the strain SUSY7 which are not transformed with cDNA sequences coding for a sucrose transporter from spinach are employed as further control.
The various tested substances, their concentration and the activity of the transporter, shown as percentage activity of the control in which no potential inhibitors were added, are indicated. Substances which specifically show an inhibitory effect on the sucrose transporter S21 (SoSUT1), are tested for their herbicidal and growth-regulating effect on whole plants.

Row | Compound | remaining activity at 1000 µM ([1]; tested substance 1 mM) [%] | remaining activity at 500 µM ([2]; tested substance 0.5 mM) [%] | remaining activity at 10 µM ([1]; tested substance 10 μM) [%] | remaining activity at 10 µM ([2]; tested substance 10 μM) [%]
1 | CCOC(=O)OC(=O)OCC [DEPC, diethyl pyrocarbonate] | 3.1 ± 1.2 | 6 |  | 
2 | N#CC(C#N)=NNc1cccc(Cl)c1 [CCCP] |  |  | 15.6 ± 2.1 | 10
